Experimental data as given in the supplement of paper PMC10627819.

How the values were obtained:
Assay in all cases: fitness (endpoint OD595 vs no drug) (fraction); higher = more growth
S. aureus DSM 20231 = system: S. aureus DSM 20231
In short: (§1)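 Plates with 384 wells were inoculated at OD595 0.01 using 30 µl of TSB, LB Lennox or CY, or 55 µl for S. pneumoniae. Incubation was at 37 °C, with OD595 measured every 30 min for 14 h. Fitness is the stationary-phase transition optical density over the robust mean of no-drug control wells, after first-reading background subtraction; it is capped at 1.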

S. aureus Newman = system: S. aureus Newman
In short: as §1

S. pneumoniae D39V = system: S. pneumoniae D39V
In short: as §1

CO[C@@]12[C@H](COC(N)=O)C3=C(C(=O)C(C)=C(N)C3=O)N1C[C@@H]1N[C@@H]12 [Mitomycin C] + Cc1ncc([N+](=O)[O-])n1CCO [Metronidazole]
Settings | fitness
S. aureus DSM 20231, first compound 0.0156 µg/mL, partner 0.625 µg/mL | 0.775
S. aureus DSM 20231, first compound 0.0156 µg/mL, partner 1.25 µg/mL | 0.873
S. aureus DSM 20231, first compound 0.0156 µg/mL, partner 2.5 µg/mL | 0.799
S. aureus DSM 20231, first compound 0.0312 µg/mL, partner 0.625 µg/mL | 0.756
S. aureus DSM 20231, first compound 0.0312 µg/mL, partner 1.25 µg/mL | 0.782
S. aureus DSM 20231, first compound 0.0312 µg/mL, partner 2.5 µg/mL | 0.779
S. aureus DSM 20231, first compound 0.0625 µg/mL, partner 0.625 µg/mL | 0.593
S. aureus DSM 20231, first compound 0.0625 µg/mL, partner 1.25 µg/mL | 0.606
S. aureus DSM 20231, first compound 0.0625 µg/mL, partner 2.5 µg/mL | 0.643
S. aureus Newman, first compound 0.0156 µg/mL, partner 0.625 µg/mL | 0.75
S. aureus Newman, first compound 0.0156 µg/mL, partner 1.25 µg/mL | 0.766
S. aureus Newman, first compound 0.0156 µg/mL, partner 2.5 µg/mL | 0.709
S. aureus Newman, first compound 0.0312 µg/mL, partner 0.625 µg/mL | 0.649
S. aureus Newman, first compound 0.0312 µg/mL, partner 1.25 µg/mL | 0.698
S. aureus Newman, first compound 0.0312 µg/mL, partner 2.5 µg/mL | 0.569
S. aureus Newman, first compound 0.0625 µg/mL, partner 0.625 µg/mL | 0.524
S. aureus Newman, first compound 0.0625 µg/mL, partner 1.25 µg/mL | 0.517
S. aureus Newman, first compound 0.0625 µg/mL, partner 2.5 µg/mL | 0.369
S. pneumoniae D39V, first compound 0.001075 µg/mL, partner 1.25 µg/mL | 0.972
S. pneumoniae D39V, first compound 0.001075 µg/mL, partner 2.5 µg/mL | 0.974
S. pneumoniae D39V, first compound 0.001075 µg/mL, partner 5 µg/mL | 0.93
S. pneumoniae D39V, first compound 0.002 µg/mL, partner 1.073 µg/mL | 0.853
S. pneumoniae D39V, first compound 0.002 µg/mL, partner 2.145 µg/mL | 0.812
S. pneumoniae D39V, first compound 0.002 µg/mL, partner 4.29 µg/mL | 0.791
S. pneumoniae D39V, first compound 0.00215 µg/mL, partner 1.25 µg/mL | 0.971
S. pneumoniae D39V, first compound 0.00215 µg/mL, partner 2.5 µg/mL | 0.984
S. pneumoniae D39V, first compound 0.00215 µg/mL, partner 5 µg/mL | 0.933
S. pneumoniae D39V, first compound 0.004 µg/mL, partner 1.073 µg/mL | 0.802
S. pneumoniae D39V, first compound 0.004 µg/mL, partner 2.145 µg/mL | 0.806
S. pneumoniae D39V, first compound 0.004 µg/mL, partner 4.29 µg/mL | 0.742
S. pneumoniae D39V, first compound 0.0043 µg/mL, partner 1.25 µg/mL | 0.857
S. pneumoniae D39V, first compound 0.0043 µg/mL, partner 2.5 µg/mL | 0.852
S. pneumoniae D39V, first compound 0.0043 µg/mL, partner 5 µg/mL | 0.836
S. pneumoniae D39V, first compound 0.008 µg/mL, partner 1.073 µg/mL | 0.72
S. pneumoniae D39V, first compound 0.008 µg/mL, partner 4.29 µg/mL | 0.735

fitness, S. aureus Newman, one replicate
Settings | first compound 0.0156 µg/mL | first compound 0.0312 µg/mL | first compound 0.0625 µg/mL
partner 0.781 µg/mL | 0.737 | 0.703 | 0.581
partner 1.562 µg/mL | 0.731 | 0.689 | 0.625
partner 3.124 µg/mL | 0.704 | 0.747 | 0.584
